Results reported in US11142501B2, “Prodrugs of monomethyl fumarate” (IXCHEL PHARMA, LLC, priority 2019, dated 2021).
Structures can show the parent of a compound that is named as a salt.

Legend:
[1] = Solubility; assay type: physicochemical; details: water; compared with monomethyl fumarate
[2] = Rat plasma conversion (ex-vivo); assay type: in vitro ADME
[3] = Stability of prodrugs on storage at RT and RF; assay type: physicochemical; details: in % (unit assumed); for Stability, value at 0 DAY: 0 day (14 Nov. 2018), dissolved in acetonitrile for analysis; for Stability, value at 7 DAY, RT / Stability, value at 15 DAY, RT: storage at room temp/25° C.; for Stability, value at 7 DAY, RT / Stability, value at 7 DAY, RF / Stability, value at 15 DAY, RT / Stability, value at 15 DAY, RF: acetonitrile for analysis; for Stability, value at 7 DAY, RF / Stability, value at 15 DAY, RF: storage under refrigeration/4° C.
Experimental: Compounds dissolved in ACN for analysis RT: Room temp/25° C. RF: Refrigeration/4° C.

[4] = Oral (PO) pharmacokinetics study in SD rat; assay type: in vivo
Experimental: Exemplary compounds of the present invention were subjected to oral (PO) Pharmacokinetics (PK) study in SD rat and data was compared with parent MMF. 6 overnight fasted male SD rats were dosed with MMF dose of 10 mpk and test compounds at the desired dose level of 10 mpk equivalent of MMF by PO route. Dosing vehicle used was MQ water. Blood was collected at different time points by retro orbital route. Plasma samples were stored at −80° C. for LC-MS analysis. Animals were sacrificed post final blood collection. Dosing and collection was done as per the in vivo protocol given below. PK analysis was done using LC-MS (ABI3200). Data analysis was performed using PRISM software to determine PK parameters such Cmax (the maximum (or peak) serum concentration that a drug achieves in a specified compartment or test area of the body after the drug has been administrated and before the administration of a second dose), Tmax (time at which the Cmax is observed) AUC (definite integral in a plot of drug concentration in blood plasma vs. time), MRT (Mean Residence Time) and t1/2 (The time required for one half of the total amount of a particular substance in a biological system to be degraded by biological processes when the rate of removal is nearly exponential)

| SMILES | Solubility [1] | Rat plasma conversion [2] | Stability, value at 0 DAY [3] | Stability, value at 7 DAY, RT [3] | Stability, value at 7 DAY, RF [3] | Stability, value at 15 DAY, RT [3] | Stability, value at 15 DAY, RF [3] | pharmacokinetics in delivery of monomethyl fumarate (MMF) in comparison with direct administration of MMF ([4]; FIG. 1 legend, in words) | AUC in rat plasma as compared to the parent drug MMF ([4]; SD rat, PO, in words) | T1/2 in rat plasma as compared to the parent drug MMF ([4]; SD rat, PO, in words) | conversion in vivo ([4]; in vivo, rat) |
| --- | --- | --- | --- | --- | --- | --- | --- | --- | --- | --- | --- |
| COC(=O)/C=C/C(=O)O [MMF, monomethyl fumarate] | highly soluble |  |  |  |  |  |  |  |  |  |  |
| COC(=O)/C=C/C(=O)OCOC(=O)c1cccnc1 [SPR11577, methyl((nicotinoyloxy) methyl)fumarate] |  | convert instantly | 99.35 | 99.79 | 99.89 | 100 | 100 |  |  |  |  |
| COC(=O)/C=C/C(=O)OCOC(=O)c1ccc[n+](C)c1.[I-] [SPR11578, (E)-3-((((4-methoxy-4-oxobut-2-enoyl)oxy)methoxy)carbonyl)-1-methylpyridin-1-ium iodide] |  | doesn't convert completely |  |  |  |  |  |  |  |  | doesn't convert completely |

Other lines, results leading:

| Solubility [1] | Rat plasma conversion [2] | Stability, value at 0 DAY [3] | Stability, value at 7 DAY, RT [3] | Stability, value at 7 DAY, RF [3] | Stability, value at 15 DAY, RT [3] | Stability, value at 15 DAY, RF [3] | pharmacokinetics in delivery of monomethyl fumarate (MMF) in comparison with direct administration of MMF ([4]; FIG. 1 legend, in words) | AUC in rat plasma as compared to the parent drug MMF ([4]; SD rat, PO, in words) | T1/2 in rat plasma as compared to the parent drug MMF ([4]; SD rat, PO, in words) | conversion in vivo ([4]; in vivo, rat) | SMILES |
| --- | --- | --- | --- | --- | --- | --- | --- | --- | --- | --- | --- |
|  | convert instantly | 97.81 | 97.61 | 97.61 | 97.21 | 97.95 |  |  |  |  | COC(=O)/C=C/C(=O)OC[n+]1cccc(C(N)=O)c1.[I-] [SPR11574, (E)-3-carbamoyl-1-(((4-methoxy-4-oxobut-2-enoyl)oxy)methyl) pyridin-1-ium iodide] |
|  | convert instantly | 97.7 | 97.61 | 97.82 | 97.06 | 97.66 | enhanced | better enhanced | better enhanced |  | CNC(=O)c1ccc[n+](COC(=O)/C=C/C(=O)OC)c1.[I-] [SPR11575, (E)-1-(((4-methoxy-4-oxobut-2-enoyl)oxy)methyl)-3-(methylcarbamoyl) pyridin-1-ium iodide] |
|  | convert instantly | 97.68 | 96.97 | 97.7 | 96.28 | 97.82 |  |  |  |  | COC(=O)/C=C/C(=O)OC[n+]1cccc(C(=O)N(C)C)c1.[I-] [SPR11576, (E)-3-(dimethylcarbamoyl)-1-(((4-methoxy-4-oxobut-2-enoyl)oxy)methyl)pyridin-1-ium iodide] |
